Experimental data as given in patent US9487504B2, “Imidazolyl analogs as syk inhibitors” (Merck Sharp & Dohme Corp., priority 2012, dated 2016).

target: T1, recombinant human GST-Syk (Homo sapiens, UniProt P43405); assay: Homogeneous Time-Resolved Fluorescence (HTRF) assay for the recombinant human Syk enzyme; type: biochemical; conditions: ATP 25 μM, 10-dose titration, read-out: rhSYK Activity
T1 construct: purchased Carna Biosciences 08-176
Protocol: Syk inhibition may be determined using the following assay protocol:
Homogeneous Time-Resolved Fluorescence (HTRF) Assay for the Recombinant Human Syk Enzyme:
A recombinant GST-hSyk fusion protein was used to measure potency of compounds to inhibit human Syk activity. The recombinant human GST-Syk (Carna Biosciences #08-176) ([…]) was incubated with various concentrations of the inhibitor diluted in DMSO (0.1% final concentration) for 10 minutes at room temperature in 15 mM Tris-HCl (pH 7.5), 0.01% tween 20, 2 mM DTT in 384 well plate format. To initiate the reaction the biotinylated substrate peptide (250 nM final concentration) that contains the phosphorylation site for Syk was added with magnesium (5 mM final concentration) and ATP (25 μM final concentration). Final volume of the reaction was 10 μL. Phosphorylation of the peptide was allowed to proceed for 45 minutes at room temperature. To quench the reaction and detect the phosphorylated product, 2 nM of a Europium-anti-phosphotyrosine antibody (Perkin Elmer #AD0161) and 70 nM SA-APC (Perkin-Elmer #CR130-100) were added together in 15 mM Tris pH 7.5, 40 mM EDTA, 0.01% tween 20. Final volume of the quenching solution was 10 μL. The resulting HTRF signal was measured after 30 minutes on an EnVision (Perkin-Elmer) reader using a time-resolved fluorescence protocol. IC50 was determined following 10-dose titration (10 μM to 0.508 nM) and four parameter logistic curve fitting using the Merck Assay Data Analyzer. The rhSyk activity (IC50) is expressed as +++ (100 nM or less), ++ (between 100 and 1000 nM), + (between 1 and 10 μM).

SMILES	IC50 [µM]
Cc1cc(Nc2nccc(C(F)(F)F)n2)cc(-n2cnc([C@]3(O)CC[C@H](OC(=O)c4ccccc4)CC3)c2)c1 [Example 66, trans-4-hydroxy-4-[1-(3-methyl-5-{[4-(trifluoromethyl)pyrimidin-2-yl]amino}phenyl)-1H-imidazol-4-yl]cyclohexyl benzoate]	0.1 to 1
Cc1cc(Nc2cc(C(F)(F)F)ccn2)nc(-n2cnc([C@]3(O)CC[C@H](OC(=O)c4ccccc4)CC3)c2)c1 [Example 63, trans-4-hydroxy-4-[1-(4-methyl-6-{[4-(trifluoromethyl)pyridin-2-yl]amino}pyridin-2-yl)-1H-imidazol-4-yl]cyclohexyl benzoate]	≤ 0.1
Cc1cc(Nc2cc(C(C)(C)C)ccn2)nc(-n2cnc([C@]3(O)CC[C@@H](O)CC3)c2)c1 [Example 47, cis-1-(1-{6-[(4-tert-butylpyridin-2-yl)amino]-4-methylpyridin-2-yl}-1H-imidazol-4-yl)cyclohexane-1,4-diol]	≤ 0.1
Cc1cc(Nc2nccc(C(F)(F)F)n2)cc(-n2cnc(C3(O)CCNC(=O)CC3)c2)c1 (stereo not drawn) [Example 109, 5-hydroxy-5-[1-(3-methyl-5-{[4-(trifluoromethyl)pyrimidin-2-yl]amino}phenyl)-1H-imidazol-4-yl]azepan-2-one]	≤ 0.1
Cc1cc(Nc2cc(C)c(F)cn2)nc(-n2cnc([C@]3(O)CC[C@@H](O)CC3)c2)c1 [Example 43, cis-1-(1-{6-[(5-fluoro-4-methylpyridin-2-yl)amino]-4-methylpyridin-2-yl}-1H-imidazol-4-yl)cyclohexane-1,4-diol]	≤ 0.1
Cc1cc(Nc2nccc(C(F)(F)F)n2)cc(-n2cnc(C3(O)CCC(CC(N)=O)CC3)c2)c1 (stereo not drawn) [Example 6, 2-{cis-4-hydroxy-4-[1-(3-methyl-5-{[4-(trifluoromethyl)pyrimidin-2-yl]amino}phenyl)-1H-imidazol-4-yl]cyclohexyl)acetamide]	≤ 0.1
CCOC(=O)C1(C)CCC(O)(c2cn(-c3cc(C)cc(Nc4nccc(C(F)(F)F)n4)c3)cn2)CC1 (stereo not drawn) [Example 22, Ethyl trans-4-hydroxy-1-methyl-4-[1-(3-methyl-5-{[4-(trifluoromethyl)pyrimidin-2-yl]amino}phenyl)-1H-imidazol-4-yl]cyclohexanecarboxylate]	≤ 0.1
CC(C)(O)c1cn(-c2cc(C(F)(F)F)cc(Nc3cc(C(F)(F)F)ccn3)n2)cn1 [Example 91, 2-{1-[4-(trifluoro-methyl)-6-{[4-(trifluoromethyl)-pyridin-2-yl]amino}-pyridin-2-yl]-1H-imidazol-4-yl}propan-2-ol]	0.1 to 1
CCOC(=O)[C@H]1CC[C@@](O)(c2cn(-c3cc(C)cc(Nc4cc(C(F)(F)F)ccn4)n3)cn2)CC1 [Example 28, Ethyl trans-4-hydroxy-4-[1-(4-methyl-6-{[4-(trifluoromethyl)pyridin-2-yl]amino}pyridin-2-yl)-1H-imidazol-4-yl]cyclohexane-carboxylate]	≤ 0.1
Nc1cc(Nc2cc(C(F)(F)F)ccn2)nc(-n2cnc(C(O)(C3CC3)C3CC3)c2)c1 [Example 84]	≤ 0.1
CCOC(=O)C(C)(C)[C@H]1CC[C@](O)(c2cn(-c3cc(C)cc(Nc4cc(C(F)(F)F)ccn4)n3)cn2)CC1 [Example 23, Ethyl 2-{cis-4-hydroxy-4-[1-(4-methyl-6-{[4-(trifluoromethyl)pyridin-2-yl]amino}pyridin-2-yl)-1H-imidazol-4-yl]cyclohexyl}-2-methylpropanoate]	≤ 0.1
Cc1cc(Nc2nccc(C)n2)cc(-n2cnc3cc(C(=O)O)ccc32)c1 [Example 72, 1-{3-methyl-5-[(4-methylpyrimidin-2-yl)amino]phenyl}-1H-benzimidazole-5-carboxylic acid]	0.1 to 1
COC(=O)c1cn(-c2cccc(Nc3cc(C(F)(F)F)ccn3)n2)cn1 [Example 96, Methyl 1-(6-{[4-(trifluoromethyl)pyridin-2-yl]amino}pyridin-2-yl)-1H-imidazole-4-carboxylate]	≤ 0.1
Cc1ccnc(Nc2cccc(-n3cnc(C(C)(C)O)c3)n2)c1 [Example 100, 2-(1-{6-[(4-methylpyridin-2-yl)amino]pyridin-2-yl}-1H-imidazol-4-yl)propan-2-ol]	0.1 to 1
CC(C)(O)c1cn(-c2cc(Cl)cc(Nc3cc(C(F)(F)F)ccn3)n2)cn1 [Example 90, 2-[1-(4-chloro-6-{[4-(trifluoromethyl)pyridin-2-yl]amino}pyridin-2-yl)-1H-imidazol-4-yl]propan-2-ol]	≤ 0.1
COC(=O)CCc1cn(-c2cc(Nc3nccc(C(F)(F)F)n3)cc(N3CCOCC3)c2)cn1 [Example 106, Methyl 3-[1-(3-morpholin-4-yl-5-{[4-(trifluoromethyl)pyrimidin-2-yl]amino}-phenyl)-1H-imidazol-4-yl]propanoate]	≤ 0.1
Cc1cc(Nc2cc(C)c(Cl)cn2)nc(-n2cnc([C@]3(O)CC[C@@H](OC(=O)c4ccccc4)CC3)c2)c1 [Example 49, cis-4-(1-{6-[(5-chloro-4-methylpyridin-2-yl)amino]-4-methylpyridin-2-yl}-1H-imidazol-4-yl)-4-hydroxycyclohexyl benzoate]	0.1 to 1

Next, values leading:

IC50 [µM]	SMILES
0.1 to 1	CCCCOC(=O)[C@H]1CC[C@H](C(C)(O)c2cn(-c3cc(C)cc(Nc4nccc(C(F)(F)F)n4)c3)cn2)CC1 (relative stereo) [Example 12, Butyl trans-4-{1-hydroxy-1-[1-(3-methyl-5-[(4-(trifluoromethyl)-pyrimidin-2-yl]amino}-phenyl)-1H-imidazol-4-yl]ethyl}cyclohexane-carboxylate]
≤ 0.1	Cc1cc(Nc2nccc(C(F)(F)F)n2)cc(-n2cnc([C@H]3CC[C@H](C(=O)O)CC3)c2)c1 [2 (trans), Trans-4-[1-(3-methyl-5-{[4-(trifluoromethyl)pyrimidin-2-yl]amino}phenyl)-1H-imidazol-4-yl]cyclohexanecarboxylic acid]
≤ 0.1	Cc1cc(Nc2nccc(C(F)(F)F)n2)cc(-n2cnc(C3(O)CCC(C(=O)O)CC3)c2)c1 (stereo not drawn) [Example 35, trans-4-hydroxy-4-[1-(3-methyl-5-[[4-(trifluoromethyl)pyrimidin-2-yl]amino}phenyl)-1H-imidazol-4-yl]cyclohexanecarboxylic acid]
≤ 0.1	Cc1cc(Nc2nccc(C(F)(F)F)n2)cc(-n2cnc(C(C)(O)[C@H]3CC[C@H](C(N)=O)CC3)c2)c1 (relative stereo) [Example 7, trans-4-{1-hydroxy-1-[1-(3-methyl-5-{[4-(trifluoromethyl)pyrimidin-2-yl]amino}phenyl)-1H-imidazol-4-yl]ethyl]cyclohexanecarboxamide]
≤ 0.1	Cc1cc(Nc2ncc(F)c(C3CC3)n2)cc(-n2cnc([C@]3(O)CC[C@@H](O)CC3)c2)c1 [Example 59, cis-1-(1-{3-[(4-cyclopropyl-5-fluoropyrimidin-2-yl)amino]-5-methylphenyl}-1H-imidazol-4-yl)cyclohexane-1,4-diol]
≤ 0.1	Cc1cc(Nc2ncc(F)c(C)n2)cc(-n2cnc([C@]3(O)CC[C@@H](O)CC3)c2)c1 [Example 57, cis-1-(1-{3-[(5-fluoro-4-methylpyrimidin-2-yl)amino]-5-methylphenyl}-1H-imidazol-4-yl)cyclohexane-1,4-diol]
≤ 0.1	Cc1cc(Nc2nccc(C(F)(F)F)n2)cc(-n2cnc([C@H]3CC[C@@H](C(=O)O)CC3)c2)c1 [2 (cis), Cis-4-[1-(3-methyl-5-{[4-(trifluoromethyl)pyrimidin-2-yl]amino}phenyl)-1H-imidazol-4-yl]cyclohexanecarboxylic acid]
≤ 0.1	Cc1cc(Nc2nccc(C(F)(F)F)n2)cc(-n2cnc([C@]3(O)CC[C@H](CC(=O)O)CC3)c2)c1 [Example 15, {trans-4-hydroxy-4-[1-(3-methyl-5-{[4-(trifluoromethyl)pyrimidin-2-yl]amino}phenyl)-1H-imidazol-4-yl]-cyclohexyl}acetic acid]
≤ 0.1	Cc1cc(Nc2nccc(C3CC3)n2)cc(-n2cnc(C[C@H](O)C(=O)O)c2)c1 [Example 8, (2S)-3-(1-{3-[(4-cyclopropylpyrimidin-2-yl)amino]-5-methylphenyl}-1H-imidazol-4-yl)-2-hydroxypropanoic acid]
≤ 0.1	Cc1cc(Nc2nccc(C(F)(F)F)n2)cc(-n2cnc(CCC(=O)O)c2)c1 [Example 76, 3-[1-(3-methyl-5-{[4-(trifluoromethyl)pyrimidin-2-yl]amino}-phenyl)-1H-imidazol-4-yl]propanoic acid]
≤ 0.1	COc1ccnc(Nc2cc(C)cc(-n3cnc(C4(O)CCC(OC(=O)c5ccccc5)CC4)c3)c2)n1 (stereo not drawn) [Example 41, cis-4-hydroxy-4-(1-{3-[(4-methoxypyrimidin-2-yl)amino]-5-methylphenyl}-1H-imidazol-4-yl)cyclohexyl benzoate]
≤ 0.1	Cc1cc(Nc2nccc(C(F)(F)F)n2)cc(-n2cnc(C3=CCC(C(=O)O)C(C)(C)C3)c2)c1 (stereo not drawn) [Example 4, 6,6-Dimethyl-4-[1-(3-methyl-5-{[4-(trifluoromethyl)pyrimidin-2-yl]amino}phenyl)-1H-imidazol-4-yl]cyclohex-3-ene-1-carboxylic acid]

same assay, conditions: ATP 25 μM, 10-dose titration, read-out: rhSYK IC50

IC50 [µM]	SMILES
0.0197	Cc1cc(Nc2nccc(C(F)(F)F)n2)cc(-n2cnc(C3(O)CCNC(=O)CC3)c2)c1 (stereo not drawn) [Example 109, 5-hydroxy-5-[1-(3-methyl-5-{[4-(trifluoromethyl)pyrimidin-2-yl]amino}phenyl)-1H-imidazol-4-yl]azepan-2-one]
0.0012	Cc1cc(Nc2nccc(C(F)(F)F)n2)cc(-n2cnc([C@H]3CC[C@H](C(=O)O)CC3)c2)c1 [2 (trans), Trans-4-[1-(3-methyl-5-{[4-(trifluoromethyl)pyrimidin-2-yl]amino}phenyl)-1H-imidazol-4-yl]cyclohexanecarboxylic acid]
0.0125	Cc1cc(Nc2nccc(C(F)(F)F)n2)cc(-n2cnc([C@H]3CC[C@@H](C(=O)O)CC3)c2)c1 [2 (cis), Cis-4-[1-(3-methyl-5-{[4-(trifluoromethyl)pyrimidin-2-yl]amino}phenyl)-1H-imidazol-4-yl]cyclohexanecarboxylic acid]
0.0009	Cc1cc(Nc2nccc(C(F)(F)F)n2)cc(-n2cnc(C3=CCC(C(=O)O)C(C)(C)C3)c2)c1 (stereo not drawn) [Example 4, 6,6-Dimethyl-4-[1-(3-methyl-5-{[4-(trifluoromethyl)pyrimidin-2-yl]amino}phenyl)-1H-imidazol-4-yl]cyclohex-3-ene-1-carboxylic acid]
